Among the data in patent publication US20130040944A1, “MGLUR4 ALLOSTERIC POTENTIATORS, COMPOSITIONS, AND METHODS OF TREATING NEUROLOGICAL DYSFUNCTION” (VANDERBILT UNIVERSITY, priority 2009, published 2013) are EC50 values, retold here.

The assay deals with human mGluR4 (Homo sapiens, UniProt Q14833). As to the kind of experiment: potentiation of human mGluR4 in transfected CHO cells, Ca2+-sensitive dye fluorescence, EC20 agonist. The conditions noted are these: hEC50, human mGluR4 potentiation; unit inferred.
human mGluR4, sequence (Q14833 33-912): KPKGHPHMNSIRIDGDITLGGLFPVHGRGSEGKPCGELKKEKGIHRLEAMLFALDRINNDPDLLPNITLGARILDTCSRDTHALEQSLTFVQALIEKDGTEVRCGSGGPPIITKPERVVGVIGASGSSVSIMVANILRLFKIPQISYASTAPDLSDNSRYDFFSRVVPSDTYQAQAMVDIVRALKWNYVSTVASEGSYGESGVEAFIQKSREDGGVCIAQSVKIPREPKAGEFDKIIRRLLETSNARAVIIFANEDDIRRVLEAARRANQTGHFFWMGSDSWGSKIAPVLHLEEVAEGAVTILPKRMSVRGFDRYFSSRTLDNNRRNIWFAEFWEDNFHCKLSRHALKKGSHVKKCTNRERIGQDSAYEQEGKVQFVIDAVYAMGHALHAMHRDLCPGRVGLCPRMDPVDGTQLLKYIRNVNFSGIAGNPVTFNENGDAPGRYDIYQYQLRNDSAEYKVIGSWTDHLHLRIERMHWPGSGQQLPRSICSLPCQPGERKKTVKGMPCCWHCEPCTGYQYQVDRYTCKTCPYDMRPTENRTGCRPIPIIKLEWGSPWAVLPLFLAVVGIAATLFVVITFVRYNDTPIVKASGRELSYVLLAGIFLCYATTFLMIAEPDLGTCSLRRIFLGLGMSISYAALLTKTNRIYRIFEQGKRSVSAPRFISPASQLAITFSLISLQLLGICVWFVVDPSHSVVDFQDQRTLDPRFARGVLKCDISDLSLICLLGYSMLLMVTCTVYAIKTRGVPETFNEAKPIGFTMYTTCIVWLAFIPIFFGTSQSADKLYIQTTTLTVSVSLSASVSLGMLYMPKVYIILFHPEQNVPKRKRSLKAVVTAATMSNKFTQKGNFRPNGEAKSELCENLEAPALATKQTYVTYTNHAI

On to `COc1ccc(S(=O)(=O)n2ccc(NC(=O)c3ccccn3)c2)cc1Cl` [Example 64, N-(1-((3-chloro-4-methoxyphenyl)sulfonyl)-1H-pyrrol-3-yl)picolinamide], for which the EC50 came out at 664 nM.

Take `O=C(Nc1ccn(S(=O)(=O)Cc2ccccc2Cl)c1)c1ncccc1F` [Example 65, N-(1-((2-chlorobenzyl)sulfonyl)-1H-pyrrol-3-yl)-3-fluoropicolinamide]: the EC50 worked out at 6970 nM.

For the molecule `O=C(Nc1ccn(S(=O)(=O)Cc2ccccc2Cl)c1)c1csnn1` [Example 66, N-(1-((2-chlorobenzyl)sulfonyl)-1H-pyrrol-3-yl)-1,2,3-thiadiazole-4-carboxamide], the EC50 came out at 307 nM.

On to `Cc1cccc(C)c1S(=O)(=O)n1ccc(NC(=O)c2ccco2)c1` [Example 67, N-(1-((2,6-dimethylphenyl)sulfonyl)-1H-pyrrol-3-yl)furan-2-carboxamide], for which the EC50 is 6130 nM.

Take `O=C(Nc1ccn(S(=O)(=O)Cc2ccc(Br)cc2)c1)c1ccccn1` [Example 70, N-(1-((4-bromobenzyl)sulfonyl)-1H-pyrrol-3-yl)picolinamide]: the concentration for a half-maximal effect (EC50) was determined as 144 nM.

On to `COc1ccccc1S(=O)(=O)n1ccc(NC(=O)c2ccccn2)c1` [Example 72, N-(1-((2-methoxyphenyl)sulfonyl)-1H-pyrrol-3-yl)picolinamide], for which the EC50 amounted to 2060 nM.

For `O=C(Nc1ccn(S(=O)(=O)c2ccccc2OC(F)F)c1)c1ccccn1` [Example 73, N-(1-((2-(difluoromethoxy)phenyl)sulfonyl)-1H-pyrrol-3-yl)picolinamide], the EC50 was 570 nM.

Take `Cc1ccc(S(=O)(=O)n2ccc(NC(=O)c3ccccn3)c2)c(C)c1` [Example 74, N-(1-((2,4-dimethylphenyl)sulfonyl)-1H-pyrrol-3-yl)picolinamide]: the EC50 amounted to 880 nM.

Consider `Cc1ccc(S(=O)(=O)n2ccc(NC(=O)c3ccccn3)c2)cc1F` [Example 75, N-(1-((3-fluoro-4-methylphenyl)sulfonyl)-1H-pyrrol-3-yl)picolinamide], for which the EC50 stood at 104 nM.

On to `Cc1cccc(Cl)c1S(=O)(=O)n1ccc(NC(=O)c2ccccn2)c1` [Example 76, N-(1-((2-chloro-6-methylphenyl)sulfonyl)-1H-pyrrol-3-yl)picolinamide], for which the EC50 was found to be 988 nM.

As for `Cc1cc(S(=O)(=O)n2ccc(NC(=O)c3ccccn3)c2)ccc1F` [Example 77, N-(1-((4-fluoro-3-methylphenyl)sulfonyl)-1H-pyrrol-3-yl)picolinamide], the EC50 was 396 nM.

Turning to `O=C(Nc1ccn(S(=O)(=O)c2cc(Cl)ccc2Cl)c1)c1ccccn1` [Example 78, N-(1-((2,5-dichlorophenyl)sulfonyl)-1H-pyrrol-3-yl)picolinamide], the EC50 was determined as 57.6 nM.

For `N#Cc1ccccc1S(=O)(=O)n1ccc(NC(=O)c2ccccn2)c1` [Example 79, N-(1-((2-cyanophenyl)sulfonyl)-1H-pyrrol-3-yl)picolinamide], the EC50 was determined as 489 nM.

Consider `O=C(Nc1ccn(S(=O)(=O)c2ccc(F)c(F)c2)c1)c1nccs1` [Example 80, N-(1-((3,4-difluorophenyl)sulfonyl)-1H-pyrrol-3-yl)thiazole-2-carboxamide], for which the EC50 was found to be 1270 nM.

As to `Cc1ccc(C)c(S(=O)(=O)n2ccc(NC(=O)c3ccccn3)c2)c1` [Example 81, N-(1-((2,5-dimethylphenyl)sulfonyl)-1H-pyrrol-3-yl)picolinamide], the EC50 stood at 228 nM.

Take `Cc1ccc(S(=O)(=O)n2ccc(NC(=O)c3ccccn3)c2)cc1C` [Example 82, N-(1-((3,4-dimethylphenyl)sulfonyl)-1H-pyrrol-3-yl)picolinamide]: the concentration giving a half-maximal response (EC50) is 139 nM.

Turning to `Cc1cc(S(=O)(=O)n2ccc(NC(=O)c3ccccn3)c2)ccc1Cl` [Example 83, N-(1-((4-chloro-3-methylphenyl)sulfonyl)-1H-pyrrol-3-yl)picolinamide], the EC50 came out at 447 nM.

`O=C(Nc1ccn(S(=O)(=O)Cc2cccc(F)c2)c1)c1nccs1` [Example 84, N-(1-((3-fluorobenzyl)sulfonyl)-1H-pyrrol-3-yl)thiazole-2-carboxamide]: the EC50 is 4800 nM.

As to `O=C(Nc1ccn(S(=O)(=O)c2cccc(C(F)(F)F)c2)c1)c1ccccn1` [Example 85, N-(1-((3-(trifluoromethyl)phenyl)sulfonyl)-1H-pyrrol-3-yl)picolinamide], the concentration for a half-maximal effect (EC50) is 1620 nM.

For `O=C(Nc1ccn(S(=O)(=O)Cc2ccccc2Cl)c1)c1ccc(Cl)cn1` [Example 86, 5-chloro-N-(1-((2-chlorobenzyl)sulfonyl)-1H-pyrrol-3-yl)picolinamide], the EC50 was found to be 7220 nM.

Take `Cc1cc(F)ccc1S(=O)(=O)n1ccc(NC(=O)c2ccccn2)c1` [Example 87, N-(1-((4-fluoro-2-methylphenyl)sulfonyl)-1H-pyrrol-3-yl)picolinamide]: the EC50 worked out at 111 nM.

As to `COc1cccc(S(=O)(=O)n2ccc(NC(=O)c3ccccn3)c2)c1` [Example 88, N-(1-((3-methoxyphenyl)sulfonyl)-1H-pyrrol-3-yl)picolinamide], the EC50 came to 230 nM.

As for `Cc1ccc(F)c(S(=O)(=O)n2ccc(NC(=O)c3ccccn3)c2)c1` [Example 89, N-(1-((2-fluoro-5-methylphenyl)sulfonyl)-1H-pyrrol-3-yl)picolinamide], the EC50 came to 281 nM.

For `O=C(Nc1ccn(S(=O)(=O)c2cccc(F)c2)c1)c1ccccn1` [Example 90, N-(1-((3-fluorophenyl)sulfonyl)-1H-pyrrol-3-yl)picolinamide], the EC50 was determined as 178 nM.

For `O=C(Nc1ccn(S(=O)(=O)Cc2cccc(F)c2)c1)c1ccco1` [Example 91, N-(1-((3-fluorobenzyl)sulfonyl)-1H-pyrrol-3-yl)furan-2-carboxamide], the EC50 is 6760 nM.

Turning to `O=C(Nc1ccn(S(=O)(=O)Cc2c(F)cccc2F)c1)c1ccccn1` [Example 92, N-(1-((2,6-difluorobenzyl)sulfonyl)-1H-pyrrol-3-yl)picolinamide], the half-maximal effective concentration (EC50) amounted to 153 nM.

As for `O=C(Nc1ccn(S(=O)(=O)Cc2c(F)cccc2F)c1)c1nccs1` [Example 93, N-(1-((2,6-difluorobenzyl)sulfonyl)-1H-pyrrol-3-yl)thiazole-2-carboxamide], the EC50 was determined as 343 nM.

Regarding `CC(C)(C)OC(=O)C(c1ccccc1)S(=O)(=O)n1ccc(NC(=O)c2ccccn2)c1` (centres unmarked) [Example 94, tert-butyl 2-phenyl-2-((3-(picolinamido)-1H-pyrrol-1-yl)sulfonyl)acetate], the EC50 came to 14500 nM.

On to `O=C(Nc1ccn(S(=O)(=O)Cc2ccc(Cl)cc2)c1)c1ccccn1` [Example 95, N-(1-((4-chlorobenzyl)sulfonyl)-1H-pyrrol-3-yl)picolinamide], for which the EC50 stood at 336 nM.

`CC(c1ccccc1)S(=O)(=O)n1ccc(NC(=O)c2ccccn2)c1` (centres unmarked) [Example 96, N-(1-((1-phenylethyl)sulfonyl)-1H-pyrrol-3-yl)picolinamide]: the EC50 is 2300 nM.

In the case of `Cc1ccc(C(=O)Nc2ccn(S(=O)(=O)Cc3ccc(Cl)cc3)c2)nc1` [Example 97, N-(1-((4-chlorobenzyl)sulfonyl)-1H-pyrrol-3-yl)-5-methylpicolinamide], the half-maximal effective concentration (EC50) turned out to be 431 nM.

For `O=C(Nc1ccn(S(=O)(=O)Cc2c(Cl)cccc2Cl)c1)c1ccccn1` [Example 98, N-(1-((2,6-dichlorobenzyl)sulfonyl)-1H-pyrrol-3-yl)picolinamide], the EC50 amounted to 119 nM.

Consider `O=C(Nc1ccn(S(=O)(=O)c2ccc(Cl)c(Cl)c2)c1)c1ccccn1` [Example 100, N-(1-((3,4-dichlorophenyl)sulfonyl)-1H-pyrrol-3-yl)picolinamide], for which the EC50 amounted to 466 nM.

For `COc1ccc(S(=O)(=O)n2ccc(NC(=O)c3ccccn3)c2)cc1OC` [Example 101, N-(1-((3,4-dimethoxyphenyl)sulfonyl)-1H-pyrrol-3-yl)picolinamide], the concentration giving a half-maximal response (EC50) came out at 5730 nM.

As to `O=C(Nc1ccn(S(=O)(=O)c2ccc(Cl)c(C(F)(F)F)c2)c1)c1ccccn1` [Example 102, N-(1-((4-chloro-3-(trifluoromethyl)phenyl)sulfonyl)-1H-pyrrol-3-yl)picolinamide], the EC50 amounted to 5120 nM.

Consider `O=C(Nc1ccn(S(=O)(=O)c2ccc(Cl)c(F)c2)c1)c1ccccn1` [Example 103, N-(1-((4-chloro-3-fluorophenyl)sulfonyl)-1H-pyrrol-3-yl)picolinamide], for which the EC50 worked out at 389 nM.

Consider `O=C(Nc1ccn(S(=O)(=O)c2ccc(C(F)(F)F)c(F)c2)c1)c1ccccn1` [Example 104, N-(1-((3-fluoro-4-(trifluoromethyl)phenyl)sulfonyl)-1H-pyrrol-3-yl)picolinamide], for which the EC50 was determined as 4020 nM.

Turning to `O=C(Nc1ccn(S(=O)(=O)C(F)c2ccccc2F)c1)c1ccccn1` (centres unmarked) [Example 105, N-(1-((fluoro(2-fluorophenyl)methyl)sulfonyl)-1H-pyrrol-3-yl)picolinamide], the EC50 was determined as 426 nM.

On to `CC(c1ccccc1Cl)S(=O)(=O)n1ccc(NC(=O)c2ccccn2)c1` (centres unmarked) [Example 106, N-(1-((1-(2-chlorophenyl)ethyl)sulfonyl)-1H-pyrrol-3-yl)picolinamide], for which the EC50 was determined as 1050 nM.

With `O=C(Nc1ccn(S(=O)(=O)c2cc(F)c(F)cc2Cl)c1)c1ccccn1` [Example 107, N-(1-((2-chloro-4,5-difluorophenyl)sulfonyl)-1H-pyrrol-3-yl)picolinamide], the concentration giving a half-maximal response (EC50) stood at 158 nM.

As for `Cc1cc(S(=O)(=O)n2ccc(NC(=O)c3ccccn3)c2)c(Cl)cc1Cl` [Example 108, N-(1-((2,4-dichloro-5-methylphenyl)sulfonyl)-1H-pyrrol-3-yl)picolinamide], the EC50 worked out at 21100 nM.

`CC(c1ccc(Cl)cc1)S(=O)(=O)n1ccc(NC(=O)c2ccccn2)c1` (centres unmarked) [Example 109, N-(1-((1-(4-chlorophenyl)ethyl)sulfonyl)-1H-pyrrol-3-yl)picolinamide]: the EC50 was determined as 1890 nM.

As for `O=C(Nc1ccn(S(=O)(=O)c2cc(F)c(F)cc2F)c1)c1ccccn1` [Example 110, N-(1-((2,4,5-trifluorophenyl)sulfonyl)-1H-pyrrol-3-yl)picolinamide], the EC50 was 226 nM.

On to `O=C(Nc1cn(S(=O)(=O)c2ccc(Cl)cc2)c2ccccc12)c1ccccn1` [Example 111, N-(1-((4-chlorophenyl)sulfonyl)-1H-indol-3-yl)picolinamide], for which the EC50 is 12200 nM.
